According to patent US12691063B1, “Methods of using radiprodil in the treatment of disorders” (GRIN Therapeutics, Inc., priority 2023, dated 2026):
Where “and” joins values, the source holds several entries; their conditions need not be identical. Equal entries are not always repeated.

Key:
[1] = 4-week juvenile rat toxicology study; type: in vivo; settings: 0.05 mg/kg bid starting dose
Description: The starting dose for each participant enrolled in the study will be set at 0.05 mg/kg bid. […] In patients with neuropathic pain, a total daily dose of 135 mg (45 mg tid) up to 14 weeks has been previously administered. […] Dose Escalation
For the sites not located in the US, based on the dedicated PBPK model, the increment will be a dose expected to give no more than a 2.5-fold higher plasma concentration.

[2] = system: patients with GRIN-related neurodevelopmental disorder and GoF variants, behavioral symptoms; test: Open-label phase 1B study, behavioral cohort; type: in vivo, human
Source text: (§1) This is a global, open-label, multicenter, phase 1B study to evaluate the safety, tolerability, and PK of multiple individually titrated doses of radiprodil and to assess the treatment effect on seizures and behavioral symptoms in 2 cohorts of pediatric participants: 1 cohort of participants with drug resistant seizures (with or without behavioral symptoms) (Cohort 1) and 1 cohort of participants with behavioral symptoms (but no qualifying seizures) (Cohort 2) caused by GoF variants in the GRIN1, 2A, 2B, or 2D genes (GRIN2B GoF variants only in the US). These GoF variants are gene mutations that cause an increased sensitivity of NMDA receptors to glutamate or through decreased inhibition by magnesium, altered affinity to glycine, or other relevant changes considered to increase NMDA transmission. Drug-resistant seizures are defined as a failure to respond to at least 2 antiseizure medication (ASM) therapies taken at adequate doses for an appropriate duration with assured medication adherence as determined by the treating physician. Participants with seizures to be enrolled in the first cohort should have at least 1 observable motor seizure per week and ≥4 observable motor seizures in the prospective 4-week Observation Period.
A behavioral cohort of patients from 6 months to 12 years of age with known GoF variants confirmed via method described in Myers, et al., Hum Mol Genetics. 2023, 32:2857-2871, was enrolled. […] Motor seizures included drop seizures; generalized onset seizures included tonic-clonic, tonic, bilateral clonic, atonic, myoclonic-atonic, and myoclonic-tonic-clonic seizures; and focal seizures included seizures with bilateral hyperkinetic motor features and clonic seizures.

NR2B receptor = target: T1, NR2B receptor (Rattus norvegicus, UniProt P35439+Q00960); test: NR2B occupancy calculated from ex-vivo occupancy study in rodents; settings: po; orally administered 1 mg/kg dose; calculated free plasma fraction; 1:1 brain to plasma ratio assumed
T1 construct: from tissue; host or cells: rodent brain (ex vivo)
T1 sequence (Q00960 27-1482, other chains not shown): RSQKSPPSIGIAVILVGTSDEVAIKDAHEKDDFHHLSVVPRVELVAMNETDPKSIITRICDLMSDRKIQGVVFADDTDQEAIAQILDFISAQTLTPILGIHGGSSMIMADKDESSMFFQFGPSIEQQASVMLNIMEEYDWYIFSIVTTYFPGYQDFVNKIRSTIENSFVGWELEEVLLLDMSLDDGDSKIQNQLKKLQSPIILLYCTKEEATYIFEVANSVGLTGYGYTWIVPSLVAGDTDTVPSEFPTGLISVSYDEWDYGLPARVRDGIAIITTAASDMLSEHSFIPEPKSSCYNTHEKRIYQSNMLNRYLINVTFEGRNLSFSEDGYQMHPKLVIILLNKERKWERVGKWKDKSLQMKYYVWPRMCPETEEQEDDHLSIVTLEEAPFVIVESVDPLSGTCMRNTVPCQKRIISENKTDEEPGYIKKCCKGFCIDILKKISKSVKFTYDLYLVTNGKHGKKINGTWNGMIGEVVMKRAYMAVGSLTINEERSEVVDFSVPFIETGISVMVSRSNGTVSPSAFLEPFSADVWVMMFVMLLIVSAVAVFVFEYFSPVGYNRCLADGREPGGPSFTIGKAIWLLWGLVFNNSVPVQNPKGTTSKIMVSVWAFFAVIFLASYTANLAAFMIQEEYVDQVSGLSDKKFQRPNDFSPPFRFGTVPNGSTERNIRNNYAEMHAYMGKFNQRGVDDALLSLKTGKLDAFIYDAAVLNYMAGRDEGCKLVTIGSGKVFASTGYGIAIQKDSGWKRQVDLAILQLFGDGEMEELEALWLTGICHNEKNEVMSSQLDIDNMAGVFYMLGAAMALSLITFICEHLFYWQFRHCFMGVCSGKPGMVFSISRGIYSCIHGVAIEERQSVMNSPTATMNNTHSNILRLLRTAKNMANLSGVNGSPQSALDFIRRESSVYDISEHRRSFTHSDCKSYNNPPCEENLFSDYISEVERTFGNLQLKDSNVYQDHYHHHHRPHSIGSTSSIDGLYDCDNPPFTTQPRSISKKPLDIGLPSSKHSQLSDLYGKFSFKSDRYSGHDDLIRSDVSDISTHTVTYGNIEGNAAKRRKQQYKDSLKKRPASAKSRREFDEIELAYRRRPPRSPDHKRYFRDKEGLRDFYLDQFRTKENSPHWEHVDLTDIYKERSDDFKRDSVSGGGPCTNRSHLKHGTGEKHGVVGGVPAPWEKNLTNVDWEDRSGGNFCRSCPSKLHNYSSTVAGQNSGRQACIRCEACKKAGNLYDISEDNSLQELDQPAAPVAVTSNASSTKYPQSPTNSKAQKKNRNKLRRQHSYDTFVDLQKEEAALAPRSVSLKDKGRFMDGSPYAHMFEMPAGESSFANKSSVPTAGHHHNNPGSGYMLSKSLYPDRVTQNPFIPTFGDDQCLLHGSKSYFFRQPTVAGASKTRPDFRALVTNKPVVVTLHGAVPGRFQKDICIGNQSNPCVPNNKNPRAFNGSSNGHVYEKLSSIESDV
Description: (§2) Radiprodil anticonvulsant efficacy was specifically tested in rats at different time points during postnatal development, using pentylenetetrazole (PTZ) as a convulsant, to induce generalized clonic-tonic seizures. The activity of radiprodil in this juvenile PTZ rat model was tested up to 30 mg/kg, showing efficacy at a dose of 1 mg/kg. The calculated free plasma fraction of an orally administered 1 mg/kg dose is expected to give around 60% occupancy of the NR2B receptor, based on an ex-vivo occupancy study in rodents and assuming a 1:1 brain to plasma ratio, see below for further details.

[3] = system: patients with GRIN-related neurodevelopmental disorder and GoF variants, countable motor seizures (CMS); test: Open-label phase 1B study, seizure cohort; type: in vivo, human
Source text: Investigational Product (IP): Radiprodil. This example describes an open-label, multicenter phase 1B study being conducted to evaluate the safety, tolerability, and pharmacokinetics (PK) of multiple individually titrated doses of radiprodil and to assess the treatment effect on seizures in participants with drug-resistant seizures caused by gain-of-function (GoF) variants in the GRIN1, GRIN2A, GRIN2B, or GRIN2D genes (GRIN2B GoF variants in the US only).
as §1
A seizure cohort of patients from 6 months to 12 years of age with known GoF variants confirmed via method described in Myers, et al., Hum Mol Genetics. 2023, 32:2857-2871, was enrolled. The patients had drug-resistant seizures with or without behavioral symptoms. Patients also had ≥1 weekly countable motor seizure (CMS) with ≥4 generalized or focal seizures during the observation period. Motor seizures included drop seizures; generalized onset seizures included tonic-clonic, tonic, bilateral clonic, atonic, myoclonic-atonic, and myoclonic-tonic-clonic seizures; and focal seizures included seizures with bilateral hyperkinetic motor features and clonic seizures.
Primary endpoints included safety, tolerability, and radiprodil plasma concentrations. Key secondary endpoints (aka, change from baseline in observable daily CMS frequency using an electronic diary (eDiary)), included ≥50%, ≥90%, and 100% reductions from baseline in seizure frequency; proportion of seizure-free days; and Clinical Global Impressions of Change (CGI-C) and Caregiver Global Impressions of Change (CaGI-C), from baseline to the end of the maintenance period.

PTZ-induced convulsions = test: Juvenile PTZ rat model of generalized clonic-tonic seizures; type: in vivo; settings: 10 mg/kg; postnatal day 12 and postnatal day 18 rats
Description: as §2

[4] = all unrelated to radiprodil treatment

O=C(Nc1ccc2[nH]c(=O)oc2c1)C(=O)N1CCC(Cc2ccc(F)cc2)CC1 [radiprodil, Radiprodil]
exposure level (total Cmax and AUC) lower than NOAEL exposure in juvenile rat toxicology study [1]: more than 20 fold
Any TEAE ([2]; Behavioral Cohort (n = 7)): 6 (85.7) n (%)
TEAE Abnormal behavior ([2]; Behavioral Cohort (n = 7)): 2 (28.6) n (%)
TEAE Agitation ([2]; Behavioral Cohort (n = 7)): 2 (28.6) n (%)
TEAE Cough ([2]; Behavioral Cohort (n = 7)): 1 (14.3) n (%)
TEAE Diarrhea ([2]; Behavioral Cohort (n = 7)): 2 (28.6) n (%)
TEAE Dystonia ([2]; Behavioral Cohort (n = 7)): 1 (14.3) n (%)
TEAE Fatigue ([2]; Behavioral Cohort (n = 7)): 2 (28.6) n (%)
TEAE Gastroenteritis ([2]; Behavioral Cohort (n = 7)): 1 (14.3) n (%)
TEAE Pyrexia ([2]; Behavioral Cohort (n = 7)): 1 (14.3) n (%)
TEAE Respiratory tract infection ([2]; Behavioral Cohort (n = 7)): 2 (28.6) n (%)
tolerability ([2]; Example 9): generally well-tolerated
patients who experienced SAEs [2, 4]: Three
Caregiver Global Impressions of Change (CaGI-C) ([2]; caregivers, behavioral cohort): clinical improvement in most patients
Clinical Global Impressions of Change (CGI-C) ([2]; clinicians, behavioral cohort): clinical improvement in most patients
receptor occupancy at 1 mg/kg (NR2B receptor): ~60%
patients seizure-free during 80% of days ([3]; 8-week maintenance period): 6 of 7
tolerability ([3]; Example 4): generally well-tolerated
Any TEAE ([3]; Seizure Cohort (n = 8)): 8 (100) n (%)
TEAE Abnormal behavior ([3]; Seizure Cohort (n = 8)): 1 (12.5) n (%)
TEAE Agitation ([3]; Seizure Cohort (n = 8)): 1 (12.5) n (%)
TEAE Cough ([3]; Seizure Cohort (n = 8)): 2 (25.0) n (%)
TEAE Diarrhoea ([3]; Seizure Cohort (n = 8)): 2 (25.0) n (%)
TEAE Dystonia ([3]; Seizure Cohort (n = 8)): 2 (25.0) n (%)
TEAE Fatigue ([3]; Seizure Cohort (n = 8)): 1 (12.5) n (%)
TEAE Gastroenteritis ([3]; Seizure Cohort (n = 8)): 2 (25.0) n (%)
TEAE Pyrexia ([3]; Seizure Cohort (n = 8)): 4 (50.0) n (%)
TEAE Respiratory tract infection ([3]; Seizure Cohort (n = 8)): 2 (25.0) n (%)
seizure cohort patients with reductions from baseline in CMS frequency ([3]; after radiprodil treatment): 6 of the 7 and 6 of 7
patients who experienced SAEs [3, 4]: Three
Caregiver Global Impressions of Change (CaGI-C) ([3]; caregivers, seizure cohort): clinical improvement in most patients
Clinical Global Impressions of Change (CGI-C) ([3]; clinicians, seizure cohort): clinical improvement in most patients
reduction in CMS frequency in most patients ([3]; seizure cohort): ≥ 50%
tonic phases of PTZ-induced convulsions (PTZ-induced convulsions): completely blocked
